Results taken from EPA's ToxRefDB 2.

Assays:
rat [1] = conditions: Combined chronic toxicity/carcinogenicity, fischer, Oral, Feed, dose end: 2 year, group: systemic
dog = conditions: Chronic toxicity; beagle; Oral; Capsule; dose end: 52 week; group: systemic; systemic / clinical chemistry / thyroxine (t4) / thyroxine (t4), total
rabbit = conditions: Prenatal developmental toxicity study, dutch, Oral, Gavage/Intubation, dose end: 18 GD, group: maternal
mouse [2] = conditions: Chronic toxicity, b6c3f1, Oral, Feed, dose end: 1 year, group: systemic
rat [3] = conditions: Multigenerational reproductive toxicity study, fischer, Oral, Feed, dose end: 2 generation
mouse [4] = conditions: Carcinogenicity, b6c3f1, Oral, Feed, dose end: 2 year, group: systemic
mouse [5] = conditions: Carcinogenicity, b6c3f1, Oral, Feed, dose end: 24 month, group: systemic
mouse [6] = conditions: Subchronic oral toxicity in rodents, b6c3f1, Feed, dose end: 90 day, group: systemic, systemic / clinical chemistry / glucose / glucose + systemic / in life observation / body weight / body weight gain + systemic / clinical …
rat [7] = conditions: Subchronic oral toxicity in rodents, fischer, Feed, dose end: 90 day, group: systemic
mouse [8] = conditions: Subchronic oral toxicity in rodents, b6c3f1, Feed, dose end: 90 day, group: systemic
rat [9] = conditions: Prenatal developmental toxicity study, sprague dawley, Oral, Gavage/Intubation, dose end: 17 GD
[10] = systemic / hematology / erythrocyte (rbc) count differential / erythrocyte (rbc) + systemic / hematology / hematocrit (hct) / hematocrit (…
[11] = systemic / pathology microscopic / mammary gland / fibroadenoma
[12] = systemic / in life observation / food consumption / food consumption + reproductive / offspring survival early / litter size / litter size…
[13] = systemic / in life observation / food consumption / food consumption + systemic / in life observation / body weight / body weight gain
[14] = systemic / pathology microscopic / kidney / pyelonephritis + systemic / pathology microscopic / urinary bladder / inflammation + systemic / …
[15] = group: offspring, systemic / in life observation / body weight / offspring (pup) weight
[16] = group: parental, systemic / organ weight / kidney / absolute + systemic / organ weight / kidney / relative to body weight + systemic / pathology microscopic…
[17] = systemic / in life observation / body weight / body weight gain
[18] = systemic / organ weight / uterus / absolute
[19] = systemic / in life observation / body weight / body weight gain + systemic / organ weight / uterus / absolute + systemic / organ weight / …
[20] = systemic / organ weight / kidney / absolute + systemic / organ weight / kidney / relative to body weight + systemic / pathology microscopic…
[21] = systemic / urinalysis / sediment microscopic / crystalluria + systemic / urinalysis / ph / ph
[22] = systemic / in life observation / body weight / body weight + systemic / organ weight / spleen / absolute
[23] = group: developmental, developmental / developmental malformation / bone / incomplete ossification + systemic / in life observation / body weight / fetal weight
[24] = group: developmental, developmental / developmental malformation / bone / incomplete ossification + systemic / in life observation / body weight / fetal weight + …
[25] = group: maternal, reproductive / reproductive performance / preimplantation loss / preimplantation loss + systemic / in life observation / body weight / body …

What does the source list for `CCCN(CCC)c1c([N+](=O)[O-])cc(S(N)(=O)=O)cc1[N+](=O)[O-]` [Oryzalin]?
LOAEL (rat [1]; [10]): 42.9 mg/kg/day; NOAEL (rat [1]; [10]): 13.8 mg/kg/day; LEL (rat [1]; [11]): 13.8 mg/kg/day; NEL (rat [1]; [11]): < 13.8 mg/kg/day; LEL (dog): 1.5 mg/kg/day; LOAEL (dog): 15 mg/kg/day; NEL (dog): < 1.5 mg/kg/day; NOAEL (dog): 5 mg/kg/day; LEL (rabbit; [12]): 55 mg/kg/day; LOAEL (rabbit; [12]): 55 mg/kg/day; NEL (rabbit; [13]): 25 mg/kg/day; NOAEL (rabbit; [13]): 25 mg/kg/day; LEL (mouse [2]; systemic / clinical chemistry / creatinine / creatinine + systemic / clinical chemistry / urea nitrogen / urea nitrogen): 193 mg/kg/day; NEL (mouse [2]; systemic / clinical chemistry / creatinine / creatinine + systemic / clinical chemistry / urea nitrogen / urea nitrogen + systemic / …): 71 mg/kg/day; LOAEL (mouse [2]; [14]): > 521 mg/kg/day; NOAEL (mouse [2]; [14]): ≥ 521 mg/kg/day; LEL (rat [3]; [15]): 179 mg/kg/day; LOAEL (rat [3]; [15]): 179 mg/kg/day; NEL (rat [3]; [15]): 58.7 mg/kg/day; NOAEL (rat [3]; [15]): 58.7 mg/kg/day; LOAEL (rat [3]; [16]): 19.4 mg/kg/day; NOAEL (rat [3]; [16]): < 19.4 mg/kg/day; LOAEL (mouse [4]; [17]): 287 mg/kg/day; NOAEL (mouse [4]; [17]): 104 mg/kg/day; LEL (mouse [4]; [18]): 112 mg/kg/day; NEL (mouse [4]; systemic / organ weight / uterus / absolute + systemic / clinical chemistry / glucose / glucose + systemic / hematology / hematocrit (hct…): 42.2 mg/kg/day; LOAEL (mouse [5]; [17]): 521 mg/kg/day; NEL (mouse [5]; [19]): 71 mg/kg/day; NOAEL (mouse [5]; [19]): 193 mg/kg/day; LEL (mouse [5]; [18]): 193 mg/kg/day; LEL (mouse [6]): 1430 mg/kg/day; LOAEL (mouse [6]): > 1430 mg/kg/day; NEL (mouse [6]): < 1430 mg/kg/day; NOAEL (mouse [6]): ≥ 1430 mg/kg/day; LOAEL (rat [7]; [20]): 45.9 mg/kg/day; NOAEL (rat [7]; [20]): 4.56 mg/kg/day; LEL (rat [7]; [21]): 4.56 mg/kg/day; NEL (rat [7]; [21]): < 4.56 mg/kg/day; LOAEL (mouse [8]; systemic / in life observation / body weight / body weight): 1140 mg/kg/day; LEL (mouse [8]; [22]): 1140 mg/kg/day; NEL (mouse [8]; [22]): 521 mg/kg/day; NOAEL (mouse [8]; [22]): 521 mg/kg/day; LEL (rat [9]; [23]): 225 mg/kg/day; LOAEL (rat [9]; [23]): 225 mg/kg/day; NEL (rat [9]; [24]): 50 mg/kg/day; NOAEL (rat [9]; [24]): 50 mg/kg/day; LEL (rat [9]; [25]): 225 mg/kg/day; LOAEL (rat [9]; [25]): 225 mg/kg/day; NEL (rat [9]; [25]): 50 mg/kg/day; NOAEL (rat [9]; [25]): 50 mg/kg/day
